Patent US20240174723A1, “STAPLED ANTIMICROBIAL PEPTIDES (STAMPS) AND USES THEREOF” (Lytica Therapeutics, Inc., priority 2021, published 2024)
Converted amounts (≈) assume the structure as drawn. Positions of bridges follow the written chain, without caps; N, C: chain ends. Non-standard residues stand in square brackets, D forms with d. Residues, ends and D or L forms follow the SMILES beside them. S5 = C=CCCC[C@](C)(N)C(=O)O; Dab = NCC[C@H](N)C(=O)O; Dap = NC[C@H](N)C(=O)O

How the values were obtained:
A. baumannii = format: cell-based, Acinetobacter baumannii
Description: (§1) Antimicrobial Activity Assay: The following microbroth dilution protocol was adapted from CLSI to determine the minimum inhibitory concentration (MIC) of StAMPs. Briefly, Mueller-Hinton broth (MHB) or cation-adjusted Mueller-Hinton broth (MHB II) was prepared and autoclaved. Then, a colony of bacterial cells was picked and grown overnight in broth at 37° C. and then diluted and allowed to grow again for 3-4 hours. Serial dilutions of peptide stocks in water (10 μl) were prepared using clear round-bottom polypropylene 96-well plates. Then 90 μl of bacteria in broth was added to give a final inoculum of 5×10^5 CFU/ml. The plates were then covered with porous tape to reduce evaporation and incubated for 20-24 hours at 37° C. The MIC was the minimum peptide concentration at which no visible bacterial growth was observed.
(§2) Renal toxicity was measured after 90 minutes of incubation, while liver toxicity was measured after 48 hours of incubation with StAMPs. N/A=not tested. The following apply to all peptides (i.e., StAMPs) listed in Tables A-C: Crosslinks (X^1—X^2 and X^3—X^4): (alk); N-terminus: —NH2; C-terminus: amidated with —NH2; counterion: Cl^−. The following apply to all peptides (i.e., StAMPs) listed in Table D: Crosslinks (X^1—X^2 and X^3—X^4): (alk); N-terminus: —NH2; C-terminus: as shown in table; counterion: Cl^−.

P. aeruginosa = format: cell-based, Pseudomonas aeruginosa
Description: as §1, §2
StAMP Micelle Formulation: DSPE-MPEG(2000) was suspended in buffered saline at 50-100 mg/mL overnight. StAMP stock solutions at 5-20 mg/mL in buffered saline were prepared and equal volumes of micelle and StAMP stock solution were mixed at the desired StAMP:Lipid ratio. Suspensions were allowed to sit for 5-10 minutes at room temperature before being used in in vitro and in vivo assays. […]

S. aureus = format: cell-based, Staphylococcus aureus
Description: as §1, §2

E. coli = format: cell-based, Escherichia coli
Description: as §1, §2

K. pneumoniae = format: cell-based, Klebsiella pneumoniae
Description: as §1, §2

in vitro = format: cell-based; details: human, Inhibitory Concentration at 50% Cytotoxicity (IC50) Human Liver Cells (HepG2)
Description: Cell culture: RPTEC were maintained in MEM media supplemented with growth factors. HEPG2 cell line was maintained in Eagle's Minimum Essential Medium (EMEM) supplemented with fetal bovine serum to a final concentration of 10%.
48 hours cytotoxicity assay: Cells were plated in a 96-well format, and after 4 hour incubation to allow attachment, serial dilutions of StAMPs from a 5 mg/mL water stock, or vehicle, were then added to the cells in a final volume of 100 μl. After incubating at 37° C. for 48 hours, 100 μl of CellTiter-Glo® reagent was added to the cells, and the plates were incubated 10 minutes at room temperature. Luminescence was then measured on a microplate reader.
as §2

SMILES	Minimum Inhibitory Concentration (MIC) A. baumannii (A. baumannii) [µg/mL]	Minimum Inhibitory Concentration (MIC) P. aeruginosa (P. aeruginosa) [µg/mL]	Minimum Inhibitory Concentration (MIC) S. aureus (S. aureus) [µg/mL]	Minimum Inhibitory Concentration (MIC) E. coli (E. coli) [µg/mL]	Minimum Inhibitory Concentration (MIC) K. pneumoniae (K. pneumoniae) [µg/mL]	IC50 at 48 hours (in vitro) [µg/mL]
CC(C)[C@@H]1NC(=O)[C@@](C)(NC(=O)[C@H](C)NC(=O)[C@H](CCCCN)NC(=O)CNC(=O)[C@H](Cc2ccccc2)NC(=O)[C@H](CCCCN)NC(=O)[C@H](CCCCN)NC(=O)[C@H](CCN)NC(=O)[C@H](CCCCN)NC(=O)[C@H](CCCCN)NC(=O)[C@]2(C)CCCC=CCCC[C@](C)(NC(=O)CN)C(=O)NCC(=O)N[C@@H](CCCCN)C(=O)N[C@@H](Cc3ccccc3)C(=O)N2)CCCC=CCCC[C@@](C)(C(=O)N[C@@H](C)C(=O)N[C@@H](CCCCN)C(=O)N[C@@H](CCCCN)C(N)=O)NC(=O)[C@H](CCC(=O)O)NC(=O)CNC1=O [compound 42] (H-G[S5]GKF[S5]KK[Dab]KKFGKA[S5]VGE[S5]AKK-NH2; staple 2-6, 16-20)	2	8	32	4	16	194 (≈ 76.5 µM)
CC(C)[C@@H]1NC(=O)[C@@](C)(NC(=O)[C@H](C)NC(=O)[C@H](CCCCN)NC(=O)CNC(=O)[C@H](Cc2ccccc2)NC(=O)[C@H](CCCCN)NC(=O)[C@H](CCN)NC(=O)[C@H](CCCCN)NC(=O)[C@H](CCCCN)NC(=O)[C@H](CCCCN)NC(=O)[C@]2(C)CCCC=CCCC[C@](C)(NC(=O)CN)C(=O)NCC(=O)N[C@@H](CCCCN)C(=O)N[C@@H](Cc3ccccc3)C(=O)N2)CCCC=CCCC[C@@](C)(C(=O)N[C@@H](C)C(=O)N[C@@H](CCCCN)C(=O)N[C@@H](CCCCN)C(N)=O)NC(=O)[C@H](CCC(=O)O)NC(=O)CNC1=O [compound 43] (H-G[S5]GKF[S5]KKK[Dab]KFGKA[S5]VGE[S5]AKK-NH2; staple 2-6, 16-20)	2	4	32	4	8	127 (≈ 50.1 µM)
CC(C)[C@@H]1NC(=O)[C@@](C)(NC(=O)[C@H](C)NC(=O)[C@H](CCCCN)NC(=O)CNC(=O)[C@H](Cc2ccccc2)NC(=O)[C@H](CCCCN)NC(=O)[C@H](CCCCN)NC(=O)[C@H](CCCCN)NC(=O)[C@H](CCCCN)NC(=O)[C@H](CCCCN)NC(=O)[C@]2(C)CCCC=CCCC[C@](C)(NC(=O)CN)C(=O)NCC(=O)N[C@@H](CCCCN)C(=O)N[C@@H](Cc3ccccc3)C(=O)N2)CCCC=CCCC[C@@](C)(C(=O)N[C@@H](C)C(=O)N[C@@H](CCN)C(=O)N[C@@H](CCCCN)C(N)=O)NC(=O)[C@H](CCC(=O)O)NC(=O)CNC1=O [compound 44] (H-G[S5]GKF[S5]KKKKKFGKA[S5]VGE[S5]A[Dab]K-NH2; staple 2-6, 16-20)	2	4	32	2	6	87 (≈ 34.3 µM)
CC(C)[C@@H]1NC(=O)[C@@](C)(NC(=O)[C@H](C)NC(=O)[C@H](CCCCN)NC(=O)CNC(=O)[C@H](Cc2ccccc2)NC(=O)[C@H](CCCCN)NC(=O)[C@H](CCCCN)NC(=O)[C@H](CCCCN)NC(=O)[C@H](CCCCN)NC(=O)[C@H](CCCCN)NC(=O)[C@]2(C)CCCC=CCCC[C@](C)(NC(=O)CN)C(=O)NCC(=O)N[C@@H](CN)C(=O)N[C@@H](Cc3ccccc3)C(=O)N2)CCCC=CCCC[C@@](C)(C(=O)N[C@@H](C)C(=O)N[C@@H](CCCCN)C(=O)N[C@@H](CCCCN)C(N)=O)NC(=O)[C@H](CCC(=O)O)NC(=O)CNC1=O [compound 45] (H-G[S5]G[Dap]F[S5]KKKKKFGKA[S5]VGE[S5]AKK-NH2; staple 2-6, 16-20)	2	4	>64	2	4	104 (≈ 41.2 µM)
CC(C)[C@@H]1NC(=O)[C@@](C)(NC(=O)[C@H](C)NC(=O)[C@H](CCCCN)NC(=O)CNC(=O)[C@H](Cc2ccccc2)NC(=O)[C@H](CCCCN)NC(=O)[C@H](CCCCN)NC(=O)[C@H](CCCCN)NC(=O)[C@H](CCCCN)NC(=O)[C@H](CN)NC(=O)[C@]2(C)CCCC=CCCC[C@](C)(NC(=O)CN)C(=O)NCC(=O)N[C@@H](CCCCN)C(=O)N[C@@H](Cc3ccccc3)C(=O)N2)CCCC=CCCC[C@@](C)(C(=O)N[C@@H](C)C(=O)N[C@@H](CCCCN)C(=O)N[C@@H](CCCCN)C(N)=O)NC(=O)[C@H](CCC(=O)O)NC(=O)CNC1=O [compound 46] (H-G[S5]GKF[S5][Dap]KKKKFGKA[S5]VGE[S5]AKK-NH2; staple 2-6, 16-20)	2	4	64	2	8	299 (≈ 119 µM)
CC(C)[C@@H]1NC(=O)[C@@](C)(NC(=O)[C@H](C)NC(=O)[C@H](CCCCN)NC(=O)CNC(=O)[C@H](Cc2ccccc2)NC(=O)[C@H](CCCCN)NC(=O)[C@H](CCCCN)NC(=O)[C@H](CCCCN)NC(=O)[C@H](CCCCN)NC(=O)[C@H](CCCCN)NC(=O)[C@]2(C)CCCC=CCCC[C@](C)(NC(=O)CN)C(=O)NCC(=O)N[C@@H](CCCCN)C(=O)N[C@@H](Cc3ccccc3)C(=O)N2)CCCC=CCCC[C@@](C)(C(=O)N[C@@H](C)C(=O)N[C@@H](CCCCN)C(=O)N[C@@H](CCCCN)C(=O)NCC(=O)N[C@@H](CCC(=O)O)C(N)=O)NC(=O)[C@H](CCC(=O)O)NC(=O)CNC1=O [compound 53] (H-G[S5]GKF[S5]KKKKKFGKA[S5]VGE[S5]AKKGE-NH2; staple 2-6, 16-20)	4	16	>64	8	32	211 (≈ 76.7 µM)
